The source of these data is patent US20200108070A2, “INHIBITORS OF FIBROBLAST GROWTH FACTOR RECEPTOR AND USE THEREOF” (Nanjing TransThera Biosciences Co. Ltd., priority 2016, published 2020).

In one assay the target is FGFR1 (Homo sapiens, UniProt P11362). The experiment in a line: Enzymatic activity test (LabChip EZ Reader II / Caliper), FGFR1. The format is biochemical. The note with it: FGFR1(h), FAM-labelled polypeptide substrate and ATP, 30 min incubation; read-out: Inhibitory activity against FGFR (IC50) FGFR1. As to the method:
(§1) Experimental Example 1: Enzymatic Activity Test of the Compounds of the Present Invention
(§2) Test substance: The compounds of the present invention, the structures of which are shown above.
(§3) Test Instrument: The LabChip EZ Reader II drug screening platform.
(§4) 1. Preparation for compound plate a) 96-well plates, 10 dose groups, 3-fold serial dilutions, added DMSO to each well, maximal concentration of 500 μM. b) 384-well plates, diluted with 1× kinase buffer (50 mM HEPES, pH 7.5; 0.0015% Brij-35; 2 mM DTT), each well containing 5× compound dissolved in 5 μL of 10% DMSO. The negative control well was 5 μL of 1× kinase buffer containing 10% DMSO. 2. Experimental procedure
(§5) […] in 1× kinase buffer were reacted with 2.5× enzyme solution at room temperature for 10 min, and then the FAM-labelled polypeptide substrate and ATP were added to initiate reaction. After incubation for 30 min, 25 μL of terminal solution (100 mM HEPES, pH 7.5; 0.015% Brij-35; 0.2% Coating Reagent #3; 50 mM EDTA) was added to terminate the reaction, and the final data were read by Caliper.

A further assay concerns the target FGFR4 (Homo sapiens, UniProt P22455). The assay is described as follows: Enzymatic activity test (LabChip EZ Reader II / Caliper), FGFR4. The format is biochemical. The settings on record: FGFR4(h), FAM-labelled polypeptide substrate and ATP, 30 min incubation; read-out: Inhibitory activity against FGFR (IC50) FGFR4. The method, then: as §1, §2, §3, §4, §5
The test system of another assay is Hep3B. The assay is described as follows: Cellular activity test (Cell titer-Glo), Hep3B. The format is cell-based. The note with it: Homo sapiens, hepatocellular carcinoma cell with abnormal FGFR, 72 h, read-out: Inhibitory activity against cells (IC50) Hep3B.
Excerpt: (§6) Experimental Example 2: Celluar Activity Test of the Compounds of the Present Invention
(§7) Hep3B is a cell with abnormal FGFR in hepatocellular carcinoma RT112/84 is a cell with abnormal FGFR in bladder cancer DMS114 is a cell with abnormal FGFR in small cell lung cancer AN3CA is a cell with abnormal FGFR in endometrial cancer SNU-16 is a cell with abnormal FGFR in gastric cancer
as §2
(§8) Test instrument: The Espire multi-function microplate reader.
(§9) Each cell line was seeded into a 96-well plate, and adherent cultured overnight. Then, the compounds at different concentrations (12 dose groups, 3× DMSO serial dilutions) were added to a final concentration of 0.17-30000 nM, with the final content of DMSO of 5‰. The negative control well was medium containing 5‰ DMSO. After incubation at 37° C., 5% CO2, 95% humidity for 72 h, the cultures would be test. 30 μL of Cell titer-Glo reagent was added to each well and incubated for 30 min at room temperature. The final data were read by Espire microplate reader.

The next assay concerns RT112/84. The assay is described as follows: Cellular activity test (Cell titer-Glo), RT112/84. The format is cell-based. The settings on record: Homo sapiens, RT112/84, bladder cancer cell with abnormal FGFR, 72 h, read-out: Inhibitory activity against cells (IC50) RT112/84.
Excerpt: as §6, §7, §2, §8, §9
Background: In ATP-based viability assays light output follows the ATP content of the culture.

Another assay deals with DMS114. The assay is described as follows: Cellular activity test (Cell titer-Glo), DMS114. The note with it: Homo sapiens, DMS-114, DMS114, small cell lung cancer cell with abnormal FGFR, 72 h, read-out: Inhibitory activity against cells (IC50) DMS114. The format is cell-based.
Excerpt: as §6, §7, §2, §8, §9

The next assay addresses FGFR3 (Homo sapiens, UniProt P22607). The assay is described as follows: Enzymatic activity test (LabChip EZ Reader II / Caliper), FGFR3. The format is biochemical. The settings on record: FGFR3(h), FAM-labelled polypeptide substrate and ATP, 30 min incubation; read-out: Inhibitory activity against FGFR (IC50) FGFR3. As to the method:
as §1, §2, §3, §4, §5

A further assay deals with AN3CA. The assay is described as follows: Cellular activity test (Cell titer-Glo), AN3CA. The settings on record: Homo sapiens, AN3-CA, endometrial cancer cell with abnormal FGFR, 72 h, read-out: Inhibitory activity against cells (IC50) AN3CA. The format is cell-based.
Excerpt: as §6, §7, §2, §8, §9

Structures are written as SMILES. A value given as a limit tells only on which side of the number the result lay.

FGFR1, sequence (P11362 22-822): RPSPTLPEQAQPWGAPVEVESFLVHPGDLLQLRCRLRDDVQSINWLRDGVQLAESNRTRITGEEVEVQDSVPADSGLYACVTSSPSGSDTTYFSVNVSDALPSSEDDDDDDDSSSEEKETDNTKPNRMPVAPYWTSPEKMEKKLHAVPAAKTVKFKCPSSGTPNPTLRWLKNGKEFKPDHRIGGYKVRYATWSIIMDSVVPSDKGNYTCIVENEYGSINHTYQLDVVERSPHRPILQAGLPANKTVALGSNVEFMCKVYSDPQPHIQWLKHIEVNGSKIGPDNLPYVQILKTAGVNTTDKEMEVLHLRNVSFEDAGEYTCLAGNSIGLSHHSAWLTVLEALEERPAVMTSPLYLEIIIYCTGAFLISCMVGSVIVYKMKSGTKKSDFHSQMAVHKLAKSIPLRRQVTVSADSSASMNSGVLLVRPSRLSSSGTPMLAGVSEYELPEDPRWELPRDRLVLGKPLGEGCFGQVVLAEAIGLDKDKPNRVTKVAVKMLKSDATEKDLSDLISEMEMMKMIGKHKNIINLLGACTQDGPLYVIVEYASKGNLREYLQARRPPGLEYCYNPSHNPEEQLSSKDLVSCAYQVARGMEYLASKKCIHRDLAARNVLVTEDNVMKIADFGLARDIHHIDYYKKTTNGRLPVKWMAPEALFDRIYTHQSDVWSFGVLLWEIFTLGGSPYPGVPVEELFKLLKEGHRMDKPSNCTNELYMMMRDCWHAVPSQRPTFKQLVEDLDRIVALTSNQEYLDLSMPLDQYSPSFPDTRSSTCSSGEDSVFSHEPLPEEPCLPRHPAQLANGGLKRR
FGFR3, sequence (P22607 23-806): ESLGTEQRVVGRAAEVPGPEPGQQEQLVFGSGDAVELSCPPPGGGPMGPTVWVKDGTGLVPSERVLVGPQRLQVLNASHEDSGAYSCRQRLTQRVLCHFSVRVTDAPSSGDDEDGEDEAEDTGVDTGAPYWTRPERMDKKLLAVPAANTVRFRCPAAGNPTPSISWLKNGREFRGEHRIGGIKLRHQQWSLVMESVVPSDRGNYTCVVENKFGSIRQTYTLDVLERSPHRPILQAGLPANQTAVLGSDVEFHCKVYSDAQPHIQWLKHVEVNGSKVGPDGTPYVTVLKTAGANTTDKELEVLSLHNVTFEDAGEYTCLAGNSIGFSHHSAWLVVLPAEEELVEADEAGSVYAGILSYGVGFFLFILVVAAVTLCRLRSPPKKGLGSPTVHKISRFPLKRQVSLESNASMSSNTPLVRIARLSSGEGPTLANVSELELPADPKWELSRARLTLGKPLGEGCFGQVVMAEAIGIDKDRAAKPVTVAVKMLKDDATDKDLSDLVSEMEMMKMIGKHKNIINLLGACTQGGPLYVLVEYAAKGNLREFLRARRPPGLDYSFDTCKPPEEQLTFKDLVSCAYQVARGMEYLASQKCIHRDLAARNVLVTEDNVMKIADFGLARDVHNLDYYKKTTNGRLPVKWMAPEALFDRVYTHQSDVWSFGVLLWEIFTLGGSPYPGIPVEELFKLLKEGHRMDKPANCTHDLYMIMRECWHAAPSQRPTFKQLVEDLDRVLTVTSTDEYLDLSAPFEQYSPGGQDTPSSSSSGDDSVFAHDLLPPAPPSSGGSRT
FGFR4, sequence (P22455 22-802): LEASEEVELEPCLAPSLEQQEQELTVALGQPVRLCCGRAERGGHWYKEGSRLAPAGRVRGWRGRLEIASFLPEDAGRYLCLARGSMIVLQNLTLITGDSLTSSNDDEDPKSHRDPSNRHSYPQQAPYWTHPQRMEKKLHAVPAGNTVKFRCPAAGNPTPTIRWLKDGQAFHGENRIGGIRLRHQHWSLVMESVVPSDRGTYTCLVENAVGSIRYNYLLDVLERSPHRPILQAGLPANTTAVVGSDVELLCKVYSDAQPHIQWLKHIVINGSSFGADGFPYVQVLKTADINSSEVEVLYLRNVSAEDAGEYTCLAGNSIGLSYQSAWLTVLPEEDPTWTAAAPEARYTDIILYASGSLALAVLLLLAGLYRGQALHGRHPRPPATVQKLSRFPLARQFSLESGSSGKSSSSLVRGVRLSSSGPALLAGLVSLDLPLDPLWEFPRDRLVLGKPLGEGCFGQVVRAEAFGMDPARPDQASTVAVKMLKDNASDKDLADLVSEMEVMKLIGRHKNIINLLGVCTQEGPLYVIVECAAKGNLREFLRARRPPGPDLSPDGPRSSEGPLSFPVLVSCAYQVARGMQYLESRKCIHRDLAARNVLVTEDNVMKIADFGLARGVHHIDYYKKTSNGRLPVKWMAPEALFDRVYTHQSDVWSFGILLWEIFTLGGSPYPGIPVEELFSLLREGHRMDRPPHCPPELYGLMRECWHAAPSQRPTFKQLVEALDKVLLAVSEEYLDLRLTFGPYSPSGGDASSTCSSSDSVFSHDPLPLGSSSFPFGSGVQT

`C=CC(=O)N1CCC(Nc2ncc3cc(-c4c(Cl)c(OC)cc(OC)c4Cl)ccc3n2)C(C)C1` (stereo not shown) [Compound 61]: the results for the IC50 at FGFR1 and at FGFR4 were 6 nM and 268 nM, respectively.
Take `C=CC(=O)N1C[C@@H](Nc2ncc3cc(-c4c(Cl)c(OC)cc(OC)c4Cl)ccc3n2)C[C@H]1C(=O)OCC` [Compound 36, ethyl(2S,4S)-1-acryloyl-4-((6-(2,6-dichloro-3,5-dimethoxyphenyl)quinazolin-2-yl)amino)pyrrolidin-2-carboxylate]: the IC50 with Hep3B was 70.7 nM.
`C=CC(=O)N1C[C@@H](Nc2ncc3cc(-c4c(Cl)c(OC)cc(OC)c4Cl)ccc3n2)C[C@H]1CC#N` [Compound 27, 2-((2S,4S)-1-acryloyl-4-((6-(2,6-dichloro-3,5-dimethoxyphenyl)quinazolin-2-yl)amino)pyrrolidin-2-yl)acetonitrile]: the IC50 came out at 18 nM on FGFR1; 261 nM on FGFR4; 82 nM with Hep3B; 127 nM with RT112/84; 72 nM with DMS114.
With `C=CC(=O)N1CC(Nc2ncc3cc(-c4c(Cl)c(OC)cc(OC)c4Cl)ccc3n2)C1` [Compound 9], the IC50 on FGFR1 was < 3 nM; at FGFR3, 8 nM; on FGFR4 it was 301 nM.
As to `C=CC(=O)N1C[C@@H](Nc2ncc3cc(-c4c(Cl)c(OC)cc(OC)c4Cl)ccc3n2)C[C@H]1CNS(C)(=O)=O` [Compound 33, N-(((2S,4S)-1-acryloyl-4-((6-(2,6-dichloro-3,5-dimethoxyphenyl)quinazolin-2-yl)amino)pyrrolidin-2-yl)methyl)methanesulfonamide], the IC50 was determined as 75.4 nM with Hep3B, 65 nM with RT112/84, 34 nM in the assay with DMS114 and 149 nM with AN3CA.
With `C=CC(=O)N1CCCC(Nc2ncc3cc(-c4c(Cl)c(OC)cc(OC)c4Cl)ccc3n2)C1` (stereo not shown) [Compound 1], on FGFR4, the IC50 is 153 nM.
In the case of `C=CC(=O)N1CCC(Nc2ncc3cc(-c4c(Cl)c(OC)cc(OC)c4Cl)ccc3n2)CC1` [Compound 10, 1-(4-((6-(2,6-dichloro-3,5-dimethoxyphenyl)quinazolin-2-yl)amino)piperidin-1-yl)prop-2-en-1-one], the IC50 at FGFR1 was < 3 nM; at FGFR3 it was 7 nM; on FGFR4, 177 nM.
In the case of `C=CC(=O)N1C[C@@H](Nc2ncc3cc(-c4c(Cl)c(OC)cc(OC)c4Cl)ccc3n2)C[C@H]1CNC(C)=O` [Compound 32, N-(((2S,4S)-1-acryloyl-4-((6-(2,6-dichloro-3,5-dimethoxyphenyl)quinazolin-2-yl)amino)pyrrolidin-2-yl)methyl)acetamide], the IC50 stood at 147 nM in the assay with Hep3B, 78 nM with RT112/84, 48 nM in the assay on DMS114 and 167 nM with AN3CA.
As for `C=CC(=O)N1C[C@@H](O)[C@H](Nc2ncc3cc(-c4c(Cl)c(OC)cc(OC)c4Cl)ccc3n2)C1` [Compound 39], the IC50 on FGFR1 is < 3 nM; at FGFR4 it was 318 nM.
On to `C=CC(=O)N1C[C@H](Nc2ncc3cc(-c4c(Cl)c(OC)cc(OC)c4Cl)ccc3n2)[C@@H](C)C1` [Compound 41], for which, on FGFR1, the IC50 worked out at 7 nM.
As for `C=CC(=O)N1C[C@@H](Nc2ncc3cc(-c4c(Cl)c(OC)cc(OC)c4Cl)ccc3n2)C[C@H]1C` [Compound 21, 1-((2R,4S)-4-((6-(2,6-dichloro-3,5-dimethoxyphenyl)quinazolin-2-yl)amino)-2-methylpyrrolidin-1-yl)propyl-2-en-1-one], the IC50 at FGFR1 worked out at 8 nM; on FGFR4 it was 330 nM; in the assay with RT112/84, 54 nM; in the assay on AN3CA, 176 nM.
For `CC#CC(=O)N1CCC(Nc2ncc3cc(-c4c(Cl)c(OC)cc(OC)c4Cl)ccc3n2)CC1` [Compound 63], the values for the IC50 on FGFR1 and at FGFR4 were < 3 nM and 196 nM, respectively.
`C=CC(=O)N1C[C@@H](Nc2ncc3cc(-c4c(Cl)c(OC)cc(OC)c4Cl)ccc3n2)C2(CC2)C1` (stereo in doubt) [Compound 66]: the IC50 on FGFR1 was found to be 15 nM; on FGFR4, 318 nM.
On to `C=CC(=O)N1C[C@@H](Nc2ncc3cc(-c4c(Cl)c(OC)cc(OC)c4Cl)ccc3n2)C[C@H]1C(C)(C)O` (stereo in doubt) [Compound 31, 1-((2R,4R)-4-((6-(2,6-dichloro-3,5-dimethoxyphenyl)quinazolin-2-yl)amino)-2-(2-hydroxypropyl-2-yl)pyrrolidin-1-yl)prop-2-en-1-one], for which the IC50 turned out to be 3.7 nM at FGFR1; 103 nM at FGFR4; 46 nM in the assay with Hep3B; 70 nM in the assay with RT112/84; 25 nM with DMS114; 117 nM in the assay with AN3CA.
Consider `C=CC(=O)N1CC[C@@H](Nc2ncc3cc(-c4c(Cl)c(OC)cc(OC)c4Cl)ccc3n2)C1` [Compound 6, (R)-1-(3-((6-(2,6-dichloro-3,5-dimethoxyphenyl)quinazolin-2-yl)amino)pyrrolidin-1-yl)prop-2-en-1-one], for which the IC50 is < 3 nM on FGFR1, 18 nM on FGFR3 and 780 nM on FGFR4.
With `C=CC(=O)N1C[C@@H](Nc2ncc3cc(-c4c(Cl)c(OC)cc(OC)c4Cl)ccc3n2)C[C@H]1COC` [Compound 53, 1-((2S,4S)-4-((6-(2,6-dichloro-3,5-dimethoxyphenyl)quinazolin-2-yl)amino)-2-(methoxymethyl)pyrrolidin-1-yl)prop-2-en-1-one], the IC50 in the assay on RT112/84 is 97 nM; with DMS114, 82 nM.
On to `C=CC(=O)N1C[C@@H](Nc2ncc3cc(-c4c(Cl)c(OC)cc(OC)c4Cl)ccc3n2)C[C@H]1C(=O)N1CCC1` [Compound 35, 1-((2S,4S)-2-(azetidine-1-carbonyl)-4-((6-(2,6-dichloro-3,5-dimethoxyphenyl)quinazolin-2-yl)amino)pyrrolidin-1-yl)prop-2-en-1-one], for which the IC50 in the assay on Hep3B turned out to be 95 nM; in the assay on RT112/84, 60 nM; with DMS114 it was 52 nM; in the assay with AN3CA, 112 nM.
Turning to `C=CC(=O)N1C[C@@H](Nc2ncc3cc(-c4c(Cl)c(OC)cc(OC)c4Cl)ccc3n2)C[C@H]1C(=O)N1CCCC1` [Compound 55, 1-((2S,4S)-4-((6-(2,6-dichloro-3,5-dimethoxyphenyl)quinazolin-2-yl)amino)-2-(pyrrolidin-1-carbonyl)pyrrolidin-1-yl)prop-2-en-1-one], the figures for the IC50 in the assay with RT112/84, in the assay on DMS114 and in the assay on AN3CA were 54 nM, 21 nM and 66 nM, respectively.
Regarding `C=CC(=O)N1C[C@@H]2C[C@H]1[C@@H]2Nc1ncc2cc(-c3c(Cl)c(OC)cc(OC)c3Cl)ccc2n1` (relative stereo) [Compound 11, 1-(trans-5-((6-(2,6-dichloro-3,5-dimethoxyphenyl)quinazolin-2-yl)amino)-2-azabicyclo[2.1.1]hexane-2-yl)prop-2-en-1-one], the IC50 at FGFR1 amounted to 21 nM; on FGFR4, 198 nM.
For the compound `C=CC(=O)N1C[C@@H](Nc2ncc3cc(-c4c(Cl)c(OC)cc(OC)c4Cl)ccc3n2)C[C@H]1C(=O)N(C)C` [Compound 30, (2S,4S)-1-acryloyl-4-((6-(2,6-dichloro-3,5-dimethoxyphenyl)quinazolin-2-yl)amino)-N,N-dimethylpyrrolidin-2-carboxamide], the IC50 at FGFR1 was 9 nM; on FGFR4, 657 nM; with Hep3B, 77.5 nM; in the assay on RT112/84 it was 117 nM.
As for `CC#CC(=O)N1CCC[C@H](Nc2ncc3cc(-c4c(Cl)c(OC)cc(OC)c4Cl)ccc3n2)C1` [Compound 62], the IC50 on FGFR1 turned out to be 7 nM.
Regarding `C=CC(=O)N1C[C@@H](Nc2ncc3cc(-c4c(Cl)c(OC)cc(OC)c4Cl)ccc3n2)C[C@H]1C(=O)NC` [Compound 37], the IC50 on FGFR1 is 8.9 nM; on FGFR4, 317 nM.
